From patent US9108944B2, “Androgen receptor modulators and uses thereof” (ARAGON PHARMACEUTICALS, INC., priority 2010, dated 2015)

Columns and labels:
[1] = biological target: T1, AR-VP16 (Homo sapiens, UniProt P10275); assay: AR-VP16 DNA Binding Assay, agonist mode (HepG2 cells); assay type: cell-based; conditions: Emax >20x DMSO control = agonist
T1 sequence (P10275 560-920 limits assumed): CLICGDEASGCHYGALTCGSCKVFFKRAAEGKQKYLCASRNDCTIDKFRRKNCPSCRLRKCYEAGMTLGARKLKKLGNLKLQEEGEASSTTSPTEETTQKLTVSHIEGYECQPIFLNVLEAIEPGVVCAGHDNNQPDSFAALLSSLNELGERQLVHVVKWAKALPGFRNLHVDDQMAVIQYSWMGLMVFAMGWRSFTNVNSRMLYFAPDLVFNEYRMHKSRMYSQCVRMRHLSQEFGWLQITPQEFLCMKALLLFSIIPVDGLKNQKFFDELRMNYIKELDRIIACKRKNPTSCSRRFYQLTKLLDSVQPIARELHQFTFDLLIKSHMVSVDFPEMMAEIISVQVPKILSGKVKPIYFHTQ

[2] = biological target: T1, AR-VP16; assay: AR-VP16 DNA Binding Assay, antagonist mode (HepG2 cells, 0.1 nM R1881); assay type: cell-based
In short: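 HepG2 cells transiently transfected with AR-VP16 (Lipofectin), incubated overnight, then treated with compound in RPMI with charcoal-stripped serum. Antagonist mode adds R1881 at 0.1 nM final. Cells lysed after 48 h incubation for read-out.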

Row | SMILES | ARVP16 DNA Binding Assay (Agonist mode): Agonist? [1] | IC50 [2]
1 | Cc1cc(N2C(=O)C3(CCC3)N(c3ccc(C(=O)Nc4ccc(Cl)cc4)c(F)c3)C2=S)cnc1C#N [Compound 296, N-(4-Chlorophenyl)-4-(7-(6-cyano-5-methylpyridin-3-yl)-8-oxo-6-thioxo-5,7-diazaspiro[3.4]octan-5-yl)-2-fluorobenzamide] | No (Agonist defined as a compound whose Emax in the ARVP16 DNA Binding Assay (Agonist mode) is >20x DMSO control) | < 1 µM
2 | Cc1cc(N2C(=O)C3(CCC3)N(c3ccc(C(=O)Nc4ccccc4F)c(F)c3)C2=S)cnc1C#N [Compound 297, 4-(7-(6-Cyano-5-methylpyridin-3-yl)-8-oxo-6-thioxo-5,7-diazaspiro[3.4]octan-5-yl)-2-fluoro-N-(2-fluorophenyl)benzamide] | No (Agonist defined as a compound whose Emax in the ARVP16 DNA Binding Assay (Agonist mode) is >20x DMSO control) | < 1 µM
3 | Cc1cc(N2C(=O)C3(CCC3)N(c3ccc(C(=O)Nc4cccc(F)c4)c(F)c3)C2=S)cnc1C#N [Compound 298, 4-(7-(6-Cyano-5-methylpyridin-3-yl)-8-oxo-6-thioxo-5,7-diazaspiro[3.4]octan-5-yl)-2-fluoro-N-(3-fluorophenyl)benzamide] | No (Agonist defined as a compound whose Emax in the ARVP16 DNA Binding Assay (Agonist mode) is >20x DMSO control) | < 1 µM
4 | Cc1cc(N2C(=O)C3(CCC3)N(c3ccc(C(=O)Nc4ccn(C)n4)c(F)c3)C2=S)cnc1C#N [Compound 303, 4-(7-(6-Cyano-5-methylpyridin-3-yl)-8-oxo-6-thioxo-5,7-diazaspiro[3.4]octan-5-yl)-2-fluoro-N-(1-methyl-1H-pyrazol-3-yl)benzamide] | No (Agonist defined as a compound whose Emax in the ARVP16 DNA Binding Assay (Agonist mode) is >20x DMSO control) | > 1 µM
5 | Cc1cc(N2C(=O)C3(CCC3)N(c3ccc(C(=O)Nc4cncc(F)c4)c(F)c3)C2=S)cnc1C#N [Compound 305, 4-(7-(6-Cyano-5-methylpyridin-3-yl)-8-oxo-6-thioxo-5,7-diazaspiro[3.4]octan-5-yl)-2-fluoro-N-(5-fluoropyridin-3-yl)benzamide] | No (Agonist defined as a compound whose Emax in the ARVP16 DNA Binding Assay (Agonist mode) is >20x DMSO control) | < 1 µM
6 | N#Cc1ncc(N2C(=O)C3(CCC3)N(c3ccc(C(=O)NCCCO)c(F)c3)C2=S)cc1C(F)(F)F [Compound 306, 4-(7-(6-cyano-5-(trifluoromethyl)pyridin-3-yl)-8-oxo-6-thioxo-5,7-diazaspiro[3.4]octan-5-yl)-2-fluoro-N-(3-hydroxypropyl)benzamide] | No (Agonist defined as a compound whose Emax in the ARVP16 DNA Binding Assay (Agonist mode) is >20x DMSO control) | < 1 µM
7 | CN(CCCNC(=O)c1ccc(N2C(=S)N(c3cnc(C#N)c(C(F)(F)F)c3)C(=O)C23CCC3)cc1F)C1CCCC1 [Compound 307, 4-(7-(6-Cyano-5-(trifluoromethyl)pyridin-3-yl)-8-oxo-6-thioxo-5,7-diazaspiro[3.4]octan-5-yl)-N-(3-(cyclopentyl(methyl)amino)propyl)-2-fluorobenzamide] | No (Agonist defined as a compound whose Emax in the ARVP16 DNA Binding Assay (Agonist mode) is >20x DMSO control) | < 1 µM
8 | N#Cc1ncc(N2C(=O)C3(CCC3)N(c3ccc(C(=O)NCCCN4CCCC4=O)c(F)c3)C2=S)cc1C(F)(F)F [Compound 308, 4-(7-(6-Cyano-5-(trifluoromethyl)pyridin-3-yl)-8-oxo-6-thioxo-5,7-diazaspiro[3.4]octan-5-yl)-2-fluoro-N-(3-(2-oxopyrrolidin-1-yl)propyl)benzamide] | No (Agonist defined as a compound whose Emax in the ARVP16 DNA Binding Assay (Agonist mode) is >20x DMSO control) | < 1 µM
9 | Cc1cc(N2C(=O)C3(CCC3)N(c3ccc(C(=O)NCC4CCOCC4)c(F)c3)C2=S)cnc1C#N [Compound 311, 4-(7-(6-Cyano-5-methylpyridin-3-yl)-8-oxo-6-thioxo-5,7-diazaspiro[3.4]octan-5-yl)-2-fluoro-N-((tetrahydro-2H-pyran-4-yl)methyl)benzamide] | No (Agonist defined as a compound whose Emax in the ARVP16 DNA Binding Assay (Agonist mode) is >20x DMSO control) | > 1 µM
10 | N#Cc1ncc(N2C(=O)C3(CCC3)N(c3ccc(C(=O)NCCCN4CCC(F)(F)C4)c(F)c3)C2=S)cc1C(F)(F)F [Compound 313, 4-(7-(6-Cyano-5-(trifluoromethyl)pyridin-3-yl)-8-oxo-6-thioxo-5,7-diazaspiro[3.4]octan-5-yl)-N-(3-(3,3-difluoropyrrolidin-1-yl)propyl)-2-fluorobenzamide] | No (Agonist defined as a compound whose Emax in the ARVP16 DNA Binding Assay (Agonist mode) is >20x DMSO control) | < 1 µM
